Test results: PMC11106165, “Repurposing the KCa3.1 Blocker Senicapoc for Ischemic Stroke” (Translational Stroke Research, 2023)

How the values were obtained:
[1] = system: MMC (mouse microglial cell line); assay: Fluo-4 calcium imaging of ATP-induced Ca2+ signaling in MMC; type: cell-based; settings: 100 µM ATP, Fluo-4 ΔF/F
Procedure: Real-time changes of [Ca^2+]i in MMCs seeded on glass coverslips at a density of 10,000 cells/cm^2 were measured using the time-lapse imaging module on a BZ-X780 fluorescence microscopy (Keyence LLC, Campbell, CA) and the fluorescent calcium indicator Fluo-4/AM from Invitrogen (ThermoFisher, Waltham, MA) as previously described. For testing the effect of KCa3.1 inhibition on intracellular calcium changes, cells were pre-incubated with senicapoc during the de-esterification step and throughout the course of the experiment. All fluorescence measurements were made at 2-s intervals at room temperature from subconfluent areas of the coverslips to ensure that only individual microglia were measured. Image data were analyzed off-line with Fiji using the ROI-1 click tool and the change in microglial [Ca^2+]i was represented as ΔF/F (change in fluorescence after baseline-subtraction).

[2] = system: male C57BL/6 J mice, tMCAO; assay: tMCAO (60 min) in mice, infarct area by T2-weighted MRI; type: in vivo, mouse
Procedure: Reversible focal cerebral ischemia was induced by occlusion of the left middle cerebral artery (MCA) according to the classic filament method of Zea Longa as previously described for mice by our laboratory. All surgeries were performed in the MicroSurgery Core of the UC Davis School of Medicine by a microsurgeon with 20 years of surgical experience using a silicone rubber-coated nylon monofilament with a tip diameter of 0.21 ± 0.02 mm (No. 702112PK5Re, Doccol Corporation). Anesthesia was induced with 5% isoflurane and then maintained with 0.5 to 1.5% isoflurane in medical pure oxygen administered through a facemask. To assure consistent and continuous reduction of cerebral blood flow (CBF), a laser Doppler (Moor Instruments: MOORVMS-LDF) probe adapter was affixed to the surface of the skull over the brain area supplied by the MCA using dental cement. The probe remained in place throughout the MCAO surgery and CBF was measured continuously to confirm occlusion and later establishment of reperfusion. Animals were kept under anesthesia and body temperature was monitored throughout the whole procedure and maintained at > 36.5 °C using a feedback-controlled heating pad. Following 60 min of MCAO, the filament was withdrawn to allow reperfusion. Blood flow measurements were continued for another 15 min before removing the adapter and the laser Doppler probe. Animals received subcutaneous Buprenex at 0.02 mg/kg every 12 h to limit post-surgical pain for 24 h after surgery. The survival rate was 93%. […] In this study, out of the animals surviving to day 8 (45 out of 48), two animals were excluded because they lacked an obvious neurological deficit score at 12 h. Animals that met inclusion criteria were assigned to the 3 groups (low- and high-dose senicapoc or vehicle) based on a computer-generated randomization scheme. […]
Infarct volume was evaluated with T2-weighted MRI imaging in the Nuclear Magnetic Resonance Facility at UC Davis. […] The multi-slice multi-echo (sequence (TE:56 ms; TR: 1681.2 ms) was used to acquire images of 7 coronal sections with 1-mm thickness from the junction of olfactory bulb and cortex. The infarct area was analyzed with Adobe Photoshop Elements by an investigator blinded to the treatments. On day 3, infarct area was corrected for edema and calculated with the equation: (L − N)/L × 100%; L, left (contralateral) hemisphere area; N, non-infarcted tissue area in the ipsilateral hemisphere. By day 8 post tMCAO, there typically is either only minimal or no associated cerebral edema, so no correction for edema is required and the percentage of infarcted area was calculated with the equation: (Infarct Area/Ipsilateral Hemisphere Area) × 100%.

[3] = system: male C57BL/6 J mice, tMCAO; assay: Immunohistochemistry (Iba-1, CD3, NeuN) of infarcted hemisphere on day 8 after MCAO; type: in vivo, mouse
Excerpt: After the MRI on day 8, animals were euthanized with an overdose of isoflurane, and brains were quickly removed and sectioned into four 2-mm-thick coronal slices starting from the frontal pole. […] Cell nuclei were visualized with 4′,6-diamidino-2-phenylindole (DAPI).
The images were then opened on the BZ-X Analyzer, the left (infarcted) hemisphere for each section extracted and analyzed with a macro within the “Hybrid Cell Count” feature of the BZ-X Analyzer program. Images were thresholded to exclusively the area of stained cells without considering artifacts, ventricles, or folds. Each macro-generated image was verified by careful visual inspection. Results for Iba1 and CD3 are reported as percentage of section area (µm^2) that was positively stained, divided by total section area (µm^2) in the infarcted left hemisphere. NeuN is reported as the inverse of the percentage of section area (µm^2) that was positively stained, divided by total section area (µm^2) in the infarcted left hemisphere in order to quantify the Neu negative area.

[4] = Plasma protein binding by rapid equilibrium dialysis; type: in vitro ADME; settings: mouse plasma, triplicate
Procedure: In order to determine whether senicapoc sufficiently engages its target, additional mice were subjected to 60 min of MCAO, treated with 40 mg/kg senicapoc IP 12 h after reperfusion and then sacrificed 1 h, 4 h, and 12 h later. Mice were deeply anesthetized with isoflurane, and blood was collected from the vena cava into EDTA tubes, and then transcardially perfused with 30 mL of saline. The brain was removed, and the forebrain divided into ipsi- and contralateral side. Brain and plasma samples were stored at − 80 °C pending analysis and then prepared and analyzed as previously described using a Waters Acquity UPLC (Waters, NY) equipped with a Acquity UPLC BEH 1.7 μm C-18 column interfaced to a TSQ Quantum Access Max mass spectrometer (Thermo Fisher Scientific, MA). Senicapoc was analyzed by the selective reaction monitoring transition of its molecular ion peak 324.09 (M + 1) into 228.07, 200.07, 183.11, and 122.18 m/z. An 8-point calibration curve ranging from 50 nM to 10 μM was used for quantification. Senicapoc plasma protein binding was determined with mouse plasma or mouse brain extract in triplicate using rapid equilibrium devices with a molecular weight cutoff of 8 kD (RED, Fisher Scientific).

[5] = system: patients with sickle cell disease and healthy volunteers; settings: cited from earlier work

NC(=O)C(c1ccccc1)(c1ccc(F)cc1)c1ccc(F)cc1 [senicapoc]
Ca2+ influx induced by ATP [1]: concentration-dependently reduced
T2-weighted lesion area ([2]; 10 mg/kg IP twice daily started 12 h after reperfusion, day 8, n = 7, vehicle 20.5 ± 1.3%): 11.6 ± 1.1%
T2-weighted lesion area ([2]; 40 mg/kg IP twice daily started 12 h after reperfusion, day 8, n = 7, vehicle 20.5 ± 1.3%): 9.3 ± 1.3%
T2-weighted lesion area ([2]; 40 mg/kg started 3 h after tMCAO, day 3, n = 8, P = 0.199, vehicle 21.4 ± 2.3%): 16.1 ± 3.1%
T2-weighted lesion area ([2]; 40 mg/kg started 3 h after tMCAO, day 8, n = 8, P = 0.0318, vehicle 16.6 ± 1.0%): 11.7 ± 1.8%
neuronal death (NeuN-negative area) [3]: decreases neuronal death
T cell infiltration (CD3 staining) ([3]; 40 mg/kg): significantly reduced
microglia/macrophage activation and infiltration (Iba1 staining) ([3]; 40 mg/kg): significantly reduced
binding to plasma protein [4]: 96.8 ± 0.5%
hemolysis, hematocrit and hemoglobin levels in phase II study ([5]; 10 mg/day, double-blind placebo-controlled): reduced hemolysis and significantly increased hematocrit and hemoglobin levels
phase III endpoint: reduction in number of vaso-occlusive pain crises [5]: did not meet the set clinical endpoint
tolerability in dose escalating phase I clinical trials ([5]; healthy volunteers and patients with sickle cell disease): well tolerated
